From article PMC5207512, “Inhibition of Helicobacter pylori and Its Associated Urease by Palmatine: Investigation on the Potential Mechanism” (PLoS ONE, 2017)
“And” between values parts separate entries of the source, which are not always exact repeats. Equal entries are not always repeated. Where two headings read alike, the source gives them in different places.

Assays:
H. pylori urease (HPU) [1] = molecular target: T1, H. pylori urease (HPU) (Helicobacter pylori, UniProt P69996); assay: biochemical; type: biochemical
T1 construct: HPU was prepared as previously described; made in house
Method: (§1) For the protection with inorganic compounds (BA and NaF), 0.25 mg/mL urease (HPU or JBU) was preincubated with 5 mM BA or 5 mM NaF for 20 min. Following preincubation, each sample of the protected urease was incubated with 0.5 mM Pal for 20 min. The samples containing a proper volume of respective buffer instead of Pal served as comparison with the abovementioned systems. The experiments were triply performed.

jack bean urease (JBU) [2] = molecular target: T2, jack bean urease (JBU) (Canavalia ensiformis, UniProt P07374); assay: biochemical; type: biochemical
T2 construct: Urease from jack bean (Canavalia ensiformis, JBU); purchased Sigma-Aldrich (St Louis, MO, USA) type III (catalogue number not given)
Method: as §1

H. pylori urease (HPU) [3] = molecular target: T1, H. pylori urease (HPU); assay: Inhibition kinetic study (Lineweaver-Burk plots); type: biochemical; settings: for Lineweaver-Burk plot raw value (reciprocal velocity): Fig 3A HPU
Method: Michaelis constant KM and the maximum velocity vmax values were evaluated by means of Lineweaver—Burk plots, using the initial velocities at different urea concentrations ([…]), in the absence or presence of 1.00, 0.50, and 0.25 mM Pal. The concentrations of HPU and JBU were both 0.25 mg/mL in the assays. The values were obtained by applying nonlinear regression to the Michaelis-Menten equation. All experiments were performed in triplicate.

H. pylori urease (HPU) [4] = molecular target: T1, H. pylori urease (HPU); assay: biochemical; type: biochemical; settings: read-out: Residual urease activity (percent of control), Fig 5A HPU, thiols 1.25 mM, Pal 0.5 mM, 20+20 min
Method: (§2) The reaction mixture consisted of 0.25 mg/mL HPU or JBU, 0.5 mM Pal (for both HPU and JBU), and 1.25 mM thiols (DTT, GSH, or L-cys) in 20 mM HEPES buffer (pH 7.5). The components of the incubation mixture were mixed according to three procedures: (1) Urease was added to the mixture after a 20-min co-incubation of Pal with thiol. (2) Pal was added to the mixture after a 20-min co-incubation of urease with thiol. (3) Thiols were added to the mixture after a 20-min co-incubation of urease with Pal. The incubation mixture containing all components was incubated for further 20 min and the activity of urease was determined. The experiments were triply performed.

jack bean urease (JBU) [5] = molecular target: T2, jack bean urease (JBU); assay: biochemical; type: biochemical; settings: read-out: Residual urease activity (percent of control), Fig 5B JBU, thiols 1.25 mM, Pal 0.5 mM, 20+20 min
Method: as §2

jack bean urease (JBU) [6] = molecular target: T2, jack bean urease (JBU); assay: Inhibition kinetic study (Lineweaver-Burk plots); type: biochemical; settings: for Lineweaver-Burk plot raw value (reciprocal velocity): Fig 3B JBU
Method: Michaelis constant KM and the maximum velocity vmax values were evaluated by means of Lineweaver—Burk plots, using the initial velocities at different urea concentrations (ranging from 0.3125 to 15 mM), in the absence or presence of 1.00, 0.50, and 0.25 mM Pal. The concentrations of HPU and JBU were both 0.25 mg/mL in the assays. The values were obtained by applying nonlinear regression to the Michaelis-Menten equation. All experiments were performed in triplicate.

[7] = design: method as in PMID 23159469; settings: among berberine, coptisine, palmatine and epiberberine; in vitro and in vivo assays; cited from earlier work
[8] = system: four H. pylori strains (ATCC 43504, NCTC 26695, SS1 and ICDC 111001); assay: MIC by agar dilution method, range over the four strains; type: cell-based; settings: Helicobacter pylori, read-out: MIC values against the four H. pylori strains
Method: A total of four H. pylori strains were studied, including three reference strains ATCC 43504, NCTC 26695 and SS1 gifted from Professor Richard Ferrero, Monash University, Australia, and one clinical isolate ICDC 111001 obtained from Professor Zhang Jianzhong, Chinese Center of Disease Control and Prevention. […] The MICs of Pal against the four H. pylori strains were evaluated by using agar dilution method. […] H. pylori strains were harvested and resuspended in PBS (1.0–2.0 McFarland were defined based on the strain properties). […] After 72 h, the MIC values were determined as the lowest concentration at which there was no strain growth judged by visual examination. Metronidazole was used as the positive control. The experiments were evaluated under two different pH (7.4 and 5.3) conditions and repeated twice.

T1 sequence (P14916 whole entry): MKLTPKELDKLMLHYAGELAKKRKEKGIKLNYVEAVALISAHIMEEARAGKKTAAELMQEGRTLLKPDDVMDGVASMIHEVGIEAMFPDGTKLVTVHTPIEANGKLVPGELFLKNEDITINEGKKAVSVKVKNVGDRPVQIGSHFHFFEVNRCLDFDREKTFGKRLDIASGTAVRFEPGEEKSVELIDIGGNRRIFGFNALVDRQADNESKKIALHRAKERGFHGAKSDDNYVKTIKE
T1 sequence (P69996 whole entry): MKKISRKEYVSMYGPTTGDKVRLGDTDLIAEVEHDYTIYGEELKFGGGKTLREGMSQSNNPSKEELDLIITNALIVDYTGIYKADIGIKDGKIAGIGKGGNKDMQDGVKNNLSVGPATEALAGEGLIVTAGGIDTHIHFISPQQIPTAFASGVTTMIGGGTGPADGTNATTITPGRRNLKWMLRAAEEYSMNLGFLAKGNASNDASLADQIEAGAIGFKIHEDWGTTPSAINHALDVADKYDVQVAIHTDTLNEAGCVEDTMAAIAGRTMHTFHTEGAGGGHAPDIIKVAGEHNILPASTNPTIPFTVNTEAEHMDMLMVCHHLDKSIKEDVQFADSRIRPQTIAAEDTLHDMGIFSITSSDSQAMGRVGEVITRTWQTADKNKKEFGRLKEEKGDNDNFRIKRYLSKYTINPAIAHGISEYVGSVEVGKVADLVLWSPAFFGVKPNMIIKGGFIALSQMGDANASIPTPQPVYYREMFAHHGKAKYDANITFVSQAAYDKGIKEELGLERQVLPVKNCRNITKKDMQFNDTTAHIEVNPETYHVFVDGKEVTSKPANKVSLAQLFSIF
T2 sequence (P07374 whole entry, looked up): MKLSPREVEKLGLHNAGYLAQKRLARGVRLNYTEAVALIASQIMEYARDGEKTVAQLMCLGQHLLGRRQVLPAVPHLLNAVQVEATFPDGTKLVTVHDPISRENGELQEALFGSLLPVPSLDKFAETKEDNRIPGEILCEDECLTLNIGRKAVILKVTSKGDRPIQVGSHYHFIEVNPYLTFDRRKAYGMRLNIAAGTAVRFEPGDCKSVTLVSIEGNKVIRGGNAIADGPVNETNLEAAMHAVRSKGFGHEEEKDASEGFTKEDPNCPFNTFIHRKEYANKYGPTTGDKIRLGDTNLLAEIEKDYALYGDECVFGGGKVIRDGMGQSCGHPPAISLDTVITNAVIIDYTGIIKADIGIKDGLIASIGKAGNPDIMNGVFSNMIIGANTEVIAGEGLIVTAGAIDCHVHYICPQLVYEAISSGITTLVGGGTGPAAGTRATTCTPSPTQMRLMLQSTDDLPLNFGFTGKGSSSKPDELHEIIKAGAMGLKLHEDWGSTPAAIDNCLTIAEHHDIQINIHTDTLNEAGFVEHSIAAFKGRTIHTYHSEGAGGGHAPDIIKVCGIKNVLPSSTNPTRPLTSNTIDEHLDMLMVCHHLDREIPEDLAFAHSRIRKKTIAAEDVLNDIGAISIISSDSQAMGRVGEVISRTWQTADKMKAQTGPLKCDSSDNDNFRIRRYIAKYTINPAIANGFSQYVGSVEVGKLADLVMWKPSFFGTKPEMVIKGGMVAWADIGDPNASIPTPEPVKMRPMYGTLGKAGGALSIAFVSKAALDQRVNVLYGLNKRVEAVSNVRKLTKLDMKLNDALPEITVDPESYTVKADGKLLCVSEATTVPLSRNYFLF

In the case of `COc1cc2c(cc1OC)-c1cc3ccc(OC)c(OC)c3c[n+]1CC2` [Pal, Palmatine], the “Residual urease activity (percent of control)” value (H. pylori urease (HPU) [1]; Fig 4C HPU, BA or NaF 5 mM preincubated 20 min, Pal 0.5 mM 20 min) is reported as 23.7773% and 26.341%, the “activity of enzyme inactivated by Pal in the presence of BA” value (H. pylori urease (HPU) [1]; HPU, 5 mM BA + 0.5 mM Pal, mean) is reported as 22.42% and the “activity of enzyme inactivated by Pal in the presence of NaF” value (H. pylori urease (HPU) [1]; HPU, 5 mM NaF + 0.5 mM Pal, mean) is reported as 20.35%. The remaining activity at 500 µM (H. pylori urease (HPU) [1]; read-out: Residual urease activity (percent of control), Fig 4C HPU, BA or NaF 5 mM preincubated 20 min, Pal 0.5 mM 20 min) was 23.1%, the “Residual urease activity (percent of control)” value (jack bean urease (JBU) [2]; Fig 4D JBU, BA or NaF 5 mM preincubated 20 min, Pal 0.5 mM 20 min) was 36.6919% and 36.1251% and the “activity of enzyme inactivated by Pal in the presence of BA” value (jack bean urease (JBU) [2]; JBU, 5 mM BA + 0.5 mM Pal, mean) was 33.08%. The “activity of enzyme inactivated by Pal in the presence of NaF” value (jack bean urease (JBU) [2]; JBU, 5 mM NaF + 0.5 mM Pal, mean) was 19.91%, the remaining activity at 500 µM (jack bean urease (JBU) [2]; read-out: Residual urease activity (percent of control), Fig 4D JBU, BA or NaF 5 mM preincubated 20 min, Pal 0.5 mM 20 min) was 35.2% and the “Lineweaver-Burk plot raw value (reciprocal velocity)” value (from here on “Lineweaver-Burk plot raw value”) (H. pylori urease (HPU) [3]; Pal=0.25 mM, 1/urea 0.0333333) was 3.3428 and 3.026 and 3.128. For the same compound, the “Lineweaver-Burk plot raw value” value (H. pylori urease (HPU) [3]; Pal=0.25 mM, 1/urea 0.0666667) was 3.79 and 3.489 and 3.584, the “Lineweaver-Burk plot raw value” value (H. pylori urease (HPU) [3]; Pal=0.25 mM, 1/urea 0.133333) was 4.108 and 3.898 and 3.84 and the “Lineweaver-Burk plot raw value” value (H. pylori urease (HPU) [3]; Pal=0.25 mM, 1/urea 0.266667) was 4.796 and 4.692 and 4.666. The “Lineweaver-Burk plot raw value” value (H. pylori urease (HPU) [3]; Pal=0.25 mM, 1/urea 0.533333) was 6.008 and 5.574 and 5.658, the “Lineweaver-Burk plot raw value” value (H. pylori urease (HPU) [3]; Pal=0.25 mM, 1/urea 1.06667) was 7.22 and 6.84 and 7.11 and the “Lineweaver-Burk plot raw value” value (H. pylori urease (HPU) [3]; Pal=0.50 mM, 1/urea 0.0333333) was 6.847 and 6.4288 and 8.753. The “Lineweaver-Burk plot raw value” value (H. pylori urease (HPU) [3]; Pal=0.50 mM, 1/urea 0.0666667) was 7.294 and 6.935 and 7.391, the “Lineweaver-Burk plot raw value” value (H. pylori urease (HPU) [3]; Pal=0.50 mM, 1/urea 0.133333) was 8.5 and 7.307 and 9.1701 and the “Lineweaver-Burk plot raw value” value (H. pylori urease (HPU) [3]; Pal=0.50 mM, 1/urea 0.266667) was 11.3701 and 11.0558. For the same compound, the “Lineweaver-Burk plot raw value” value (H. pylori urease (HPU) [3]; Pal=0.50 mM, 1/urea 0.533333) was 13.369 and 12.3993, the “Lineweaver-Burk plot raw value” value (H. pylori urease (HPU) [3]; Pal=0.50 mM, 1/urea 1.06667) was 12.1433 and 18.315 and 12.9786 and the “Lineweaver-Burk plot raw value” value (H. pylori urease (HPU) [3]; Pal=1.00 mM, 1/urea 0.0333333) was 10.7527 and 9.785 and 8.636. For the same compound, the “Lineweaver-Burk plot raw value” value (H. pylori urease (HPU) [3]; Pal=1.00 mM, 1/urea 0.0666667) was 12.8452 and 10.5708 and 10.7296, the “Lineweaver-Burk plot raw value” value (H. pylori urease (HPU) [3]; Pal=1.00 mM, 1/urea 0.133333) was 12.2775 and 12.7551 and 11.5942 and the “Lineweaver-Burk plot raw value” value (H. pylori urease (HPU) [3]; Pal=1.00 mM, 1/urea 0.266667) was 16.5017 and 10.1061 and 12.6342. The “Lineweaver-Burk plot raw value” value (H. pylori urease (HPU) [3]; Pal=1.00 mM, 1/urea 0.533333) was 22.1239 and 12.1729 and 15.3022, the “Lineweaver-Burk plot raw value” value (H. pylori urease (HPU) [3]; Pal=1.00 mM, 1/urea 1.06667) was 26.3505 and 13.2013 and 19.861 and the “type of urease inhibition” value (H. pylori urease (HPU) [3]; HPU, Lineweaver-Burk) was “noncompetitive”. The remaining activity at 500 µM (H. pylori urease (HPU) [4]; order (Protector+Pal)+urease) was 19.8%, the remaining activity at 500 µM (H. pylori urease (HPU) [4]; order (urease+Pal)+Protector) was 20% and the remaining activity at 500 µM (H. pylori urease (HPU) [4]; order (urease+Protector)+Pal) was 16.7%. It also gave a remaining activity at 500 µM (jack bean urease (JBU) [5]; order (Protector+Pal)+urease) of 43.3%, a remaining activity at 500 µM (jack bean urease (JBU) [5]; order (urease+Pal)+Protector) of 38% and a remaining activity at 500 µM (jack bean urease (JBU) [5]; order (urease+Protector)+Pal) of 35.4%. For the same compound, the “Lineweaver-Burk plot raw value” value (jack bean urease (JBU) [6]; Pal=0.25 mM, 1/urea 0.0333333) was 6.736 and 6.4288 and 6.3593, the “Lineweaver-Burk plot raw value” value (jack bean urease (JBU) [6]; Pal=0.25 mM, 1/urea 0.0666667) was 9.843 and 8.358 and 8.117 and the “Lineweaver-Burk plot raw value” value (jack bean urease (JBU) [6]; Pal=0.25 mM, 1/urea 0.266667) was 12.8949 and 20.429 and 18.9394. For the same compound, the “Lineweaver-Burk plot raw value” value (jack bean urease (JBU) [6]; Pal=0.25 mM, 1/urea 0.533333) was 27.5862 and 33.6135 and 34.6021, the “Lineweaver-Burk plot raw value” value (jack bean urease (JBU) [6]; Pal=0.25 mM, 1/urea 1.06667) was 85.4701 and 51.1509 and 56.8182 and the “Lineweaver-Burk plot raw value” value (jack bean urease (JBU) [6]; Pal=0.50 mM, 1/urea 0.0333333) was 6.923 and 7.202 and 9.225. The “Lineweaver-Burk plot raw value” value (jack bean urease (JBU) [6]; Pal=0.50 mM, 1/urea 0.0666667) was 8.807 and 9.298 and 11.1669, the “Lineweaver-Burk plot raw value” value (jack bean urease (JBU) [6]; Pal=0.50 mM, 1/urea 0.133333) was 18.6916 and 14.9813 and 17.4672 and the “Lineweaver-Burk plot raw value” value (jack bean urease (JBU) [6]; Pal=0.50 mM, 1/urea 0.266667) was 37.037 and 24.1255 and 22.7273. The “Lineweaver-Burk plot raw value” value (jack bean urease (JBU) [6]; Pal=0.50 mM, 1/urea 0.533333) was 57.971 and 34.3053 and 43.4783, the “Lineweaver-Burk plot raw value” value (jack bean urease (JBU) [6]; Pal=1.00 mM, 1/urea 0.0333333) was 7.877 and 9.307 and 11.4613 and the “Lineweaver-Burk plot raw value” value (jack bean urease (JBU) [6]; Pal=1.00 mM, 1/urea 0.0666667) was 11.4679 and 16.2867 and 12.6662. For the same compound, the “Lineweaver-Burk plot raw value” value (jack bean urease (JBU) [6]; Pal=1.00 mM, 1/urea 0.133333) was 16.1031 and 22.0507 and 21.7155, the “Lineweaver-Burk plot raw value” value (jack bean urease (JBU) [6]; Pal=1.00 mM, 1/urea 0.266667) was 25.0313 and 34.7222 and 40.9836 and the “Lineweaver-Burk plot raw value” value (jack bean urease (JBU) [6]; Pal=1.00 mM, 1/urea 0.533333) was 40.4858 and 35.0263 and 56.6572. The “type of urease inhibition” value (jack bean urease (JBU) [6]; JBU, Lineweaver-Burk) was “noncompetitive”, the toxicity [7] was “minimal” and the MIC ([8]; acidic conditions (pH 5.3)) was 75 to 100 µg/mL. The MIC ([8]; neutral conditions (pH 7.4)) was 100 to 200 µg/mL.
